Reference: patent US20240279218A1 (Hoffmann-La Roche Inc., priority 2016, published 2024)

Tests used:
h-GABA-A α5β3γ2 [1] = target: T1, h-GABA-A α5β3γ2 (Homo sapiens (Human), UniProt P18507+P31644); assay: [3H]flumazenil competition binding assay, membranes of HEK293 cells expressing human GABAA receptors; conditions: displacement of [3H]flumazenil 0.5 nM, HEK293 cells expressing human receptors, mean of two determinations; read-out: Ki h-GABA-A α5β3γ2
In short: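 Displacement of [3H]flumazenil from membranes of HEK293 cells transiently expressing human α5β3γ2 receptors, in Krebs-tris buffer pH 7.5. Incubation to equilibrium, 1 h at 4° C., then filtration and scintillation counting. Ki is the mean of two determinations.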

h-GABA-A α5β3γ2 [2] = target: T1, h-GABA-A α5β3γ2; assay: Two-electrode voltage clamp electrophysiology in Xenopus oocytes expressing GABAA receptors, modulation of GABA EC20 current; assay type: cell-based; conditions: Xenopus oocytes; for Efficacy (GABA) %: % modulation of GABA EC20 = 100*(Fold increase−1); for Fold increase h-GABA-A α5β3γ2 oocyte: GABA EC20, test compound at approx. 30 fold its Ki
In short: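 Values are % modulation of an EC20 GABA response, derived point by point from the ratio of compound-exposed versus control current traces (extremum taken, 100×(fold−1)). Recordings used oocytes injected with human α5, β3, γ2 mRNA, clamped at −80 mV at room temperature, at least 3 oocytes each.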

Ki (h-GABA-A α5β3γ2 [1]) | Efficacy (GABA) % (h-GABA-A α5β3γ2 [2]) | Fold increase h-GABA-A α5β3γ2 oocyte (h-GABA-A α5β3γ2 [2]) | SMILES
13 nM | 68% | 1.68 | Cc1ccc(-c2noc(C)c2COc2ccc(C(=O)N3CC(F)(F)C3)nn2)cn1 [Example 47, (3,3-difluoroazetidin-1-yl)(6-((5-methyl-3-(6-methylpyridin-3-yl)isoxazol-4-yl)methoxy)pyridazin-3-yl)methanone]
31.6 nM | 74% | 1.74 | Cc1ccc(-c2noc(C)c2COc2ccc(C(=O)N3CCC(F)(F)C3)nn2)cn1 [Example 48, (3,3-difluoropyrrolidin-1-yl)(6-((5-methyl-3-(6-methylpyridin-3-yl)isoxazol-4-yl)methoxy)pyridazin-3-yl)methanone]
13.6 nM | 70% | 1.7 | Cc1ccc(-c2noc(C)c2COc2ccc(C(=O)NCC3(C)COC3)nn2)cn1 [Example 49, 6-((5-methyl-3-(6-methylpyridin-3-yl)isoxazol-4-yl)methoxy)-N-((3-methyloxetan-3-yl)methyl)pyridazine-3-carboxamide]
7.6 nM | 72% | 1.72 | Cc1ccc(-c2noc(C)c2COc2ccc(C(=O)NCC3COC3)nn2)cn1 [Example 50, 6-((5-methyl-3-(6-methyl-3-pyridyl)isoxazol-4-yl)methoxy)-N-(oxetan-3-ylmethyl)pyridazine-3-carboxamide]
10.8 nM | 57% | 1.57 | Cc1ccc(-c2noc(C)c2COc2ccc(C(=O)NCC3(O)COC3)nn2)cn1 [Example 51, N-((3-hydroxyoxetan-3-yl)methyl)-6-((5-methyl-3-(6-methylpyridin-3-yl)isoxazol-4-yl)methoxy)pyridazine-3-carboxamide]
28.9 nM | 67% | 1.67 | Cc1ccc(-c2noc(C)c2COc2ccc(C(=O)N[C@@H]3CCOC[C@@H]3C)nn2)cn1 [Example 52, 6-((5-methyl-3-(6-methylpyridin-3-yl)isoxazol-4-yl)methoxy)-N-((3R,4R)-3-methyltetrahydropyran-4-yl)pyridazine-3-carboxamide]
95.8 nM | 80% | 1.8 | Cc1ccc(-c2noc(C)c2COc2ccc(C(=O)N3CCC(F)(F)CC3)nn2)cn1 [Example 53, (4,4-difluoropiperidin-1-yl)(6-((5-methyl-3-(6-methylpyridin-3-yl)isoxazol-4-yl)methoxy)pyridazin-3-yl)methanone]
19.9 nM | 86% | 1.86 | COCC1(NC(=O)c2ccc(OCc3c(-c4ccc(C)nc4)noc3C)nn2)CC1 [Example 54, N-(1-(methoxymethyl)cyclopropyl)-6-((5-methyl-3-(6-methylpyridin-3-yl)isoxazol-4-yl)methoxy)pyridazine-3-carboxamide]
8.6 nM | 57% | 1.57 | COC1CN(C(=O)c2ccc(OCc3c(-c4ccc(C)nc4)noc3C)nn2)C1 [Example 55, (3-methoxyazetidin-1-yl)(6-((5-methyl-3-(6-methylpyridin-3-yl)isoxazol-4-yl)methoxy)pyridazin-3-yl)methanone]
7.9 nM | 64% | 1.64 | Cc1ccc(-c2noc(C)c2COc2ccc(C(=O)N3CC(C)(O)C3)nn2)cn1 [Example 56, (3-hydroxy-3-methylazetidin-1-yl)(6-((5-methyl-3-(6-methylpyridin-3-yl)isoxazol-4-yl)methoxy)pyridazin-3-yl)methanone]
7.2 nM | 64% | 1.64 | Cc1ccc(-c2noc(C)c2COc2ccc(C(=O)N3CCC3)nn2)cn1 [Example 57, azetidin-1-yl(6-((5-methyl-3-(6-methylpyridin-3-yl)isoxazol-4-yl)methoxy)pyridazin-3-yl)methanone]
10.4 nM | 93% | 1.93 | Cc1ccc(-c2noc(C)c2COc2ccc(C(=O)NC3(C(F)(F)F)CC3)nn2)cn1 [Example 59, 6-((5-methyl-3-(6-methylpyridin-3-yl)isoxazol-4-yl)methoxy)-N-(1-(trifluoromethyl)cyclopropyl)pyridazine-3-carboxamide]
93.4 nM | 99% | 1.99 | Cc1ccc(-c2noc(C)c2COc2ccc(C(=O)N3CCOCC3)nn2)cn1 [Example 60, (6-((5-methyl-3-(6-methylpyridin-3-yl)isoxazol-4-yl)methoxy)pyridazin-3-yl)(morpholino)methanone]
7.1 nM | 58% | 1.58 | Cc1ccc(-c2noc(C)c2COc2ccc(C(=O)N3CC4(COC4)C3)nn2)cn1 [Example 61, (6-((5-methyl-3-(6-methylpyridin-3-yl)isoxazol-4-yl)methoxy)pyridazin-3-yl)(2-oxa-6-azaspiro[3.3]heptan-6-yl)methanone]
20.8 nM | 42% | 1.42 | Cc1ccc(-c2noc(C)c2COc2cc(C)c(C(=O)NC3CCOCC3)nn2)cn1 [Example 62, 4-methyl-6-((5-methyl-3-(6-methylpyridin-3-yl)isoxazol-4-yl)methoxy)-N-(tetrahydropyran-4-yl)pyridazine-3-carboxamide]
4.6 nM | 79% | 1.79 | Cc1ccc(-c2noc(C)c2COc2ccc(C(=O)N3CCC34COC4)nn2)cn1 [Example 63, (6-((5-methyl-3-(6-methylpyridin-3-yl)isoxazol-4-yl)methoxy)pyridazin-3-yl)(6-oxa-1-azaspiro[3.3]heptan-1-yl)methanone]
17.6 nM | 86% | 1.86 | Cc1ccc(-c2noc(C)c2COc2ccc(C(=O)NC(C)(C)C(F)(F)F)nn2)cn1 [Example 64, 6-((5-methyl-3-(6-methylpyridin-3-yl)isoxazol-4-yl)methoxy)-N-(1,1,1-trifluoro-2-methylpropan-2-yl)pyridazine-3-carboxamide]
7.2 nM | 62% | 1.62 | Cc1ccc(-c2noc(C)c2COc2ccc(C(=O)N3CC(F)C3)nn2)cn1 [Example 65, (3-fluoroazetidin-1-yl)(6-((5-methyl-3-(6-methylpyridin-3-yl)isoxazol-4-yl)methoxy)pyridazin-3-yl)methanone]
5.8 nM | 69% | 1.69 | Cc1ccc(-c2noc(C)c2COc2ccc(C(=O)N3CC(O)C3)nn2)cn1 [Example 66, (3-hydroxyazetidin-1-yl)(6-((5-methyl-3-(6-methylpyridin-3-yl)isoxazol-4-yl)methoxy)pyridazin-3-yl)methanone]
11.8 nM | 59% | 1.59 | Cc1ccc(-c2noc(C)c2COc2ccc(C(=O)N3CC(C)(F)C3)nn2)cn1 [Example 67, (3-fluoro-3-methylazetidin-1-yl)(6-((5-methyl-3-(6-methylpyridin-3-yl)isoxazol-4-yl)methoxy)pyridazin-3-yl)methanone]
